# From ChEMBL document CHEMBL1201862, “PubChem BioAssay data set” (2004)
# Active and inactive are the calls of the source.
# How the values were obtained:
# [1] = cytotoxicity in HEK-293T NF-kB-Luc cells, dose response, cytotoxicity control for B/T-cell NF-kB inhibitor project, cell-based, uHTS hits (AID 489019); format: functional;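 further: IC50 reflects cytotoxicity as loss of cell viability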
# [2] = Luminescence Cell-Based Dose Response HTS to Identify Inhibitors of 5'UTR Stem-Loop Driven Prion Protein mRNA Translation in H4 Neuroglioblastoma Cells. [Related pubchem assays: 1827 (Project Summary), 1813 (Primary HTS)]; format: functional
# Jurkat = test: antigen receptor-induced NF-kB inhibitors, dose response, Jurkat, luciferase reporter, luminescence, B- and T-cell (AID 489004); format: functional, cell-based; details: Homo sapiens;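 further: NF-kB luciferase reporter Jurkat cells stimulated with PMA plus ionomycin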
# [3] = inhibitors of firefly luciferase expression or activity, dose response, H4 neuroglioma cells, luminescence (AID 1990); format: functional, cell-based
# [4] = inhibitors of SNCA 5'UTR-driven reporter translation, confirmation, H4 neuroglioma cells, luminescence (AID 1988); format: functional, cell-based
# [5] = HeLa cell cytotoxicity, dose response, cytotoxicity control for MgcRacGAP inhibitor project (AID 624300); format: functional
# [6] = target: T1, Rac GTPase-activating protein 1 (Homo sapiens, UniProt Q9H0H5); test: MgcRacGAP GTPase-activating activity inhibitors, confirmation, biochemical, ADP Hunter fluorescence, primary and confirmatory (AID 624330); format: functional
# T1 sequence (Q9H0H5 whole entry): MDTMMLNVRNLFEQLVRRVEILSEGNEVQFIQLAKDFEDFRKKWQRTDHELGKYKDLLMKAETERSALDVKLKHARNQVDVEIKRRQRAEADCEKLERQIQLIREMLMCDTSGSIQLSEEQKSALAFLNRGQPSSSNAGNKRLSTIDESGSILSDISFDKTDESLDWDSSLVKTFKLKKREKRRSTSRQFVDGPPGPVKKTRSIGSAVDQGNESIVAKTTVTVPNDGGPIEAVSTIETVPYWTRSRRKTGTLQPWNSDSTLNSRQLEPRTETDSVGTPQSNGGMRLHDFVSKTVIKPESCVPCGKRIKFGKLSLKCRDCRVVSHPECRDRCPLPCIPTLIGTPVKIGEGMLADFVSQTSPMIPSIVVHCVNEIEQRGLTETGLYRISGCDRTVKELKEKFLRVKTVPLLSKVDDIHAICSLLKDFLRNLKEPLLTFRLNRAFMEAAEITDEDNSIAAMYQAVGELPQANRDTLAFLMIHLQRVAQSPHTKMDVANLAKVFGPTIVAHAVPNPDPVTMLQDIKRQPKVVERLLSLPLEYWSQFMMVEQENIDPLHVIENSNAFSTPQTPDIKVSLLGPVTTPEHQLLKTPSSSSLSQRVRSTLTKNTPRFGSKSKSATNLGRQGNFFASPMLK
# A-375 [7] = test: A375 melanoma cell viability reduction, dose response, counter-screen for MITF modulator project, cherry-pick samples, set 2 (AID 540335); format: functional, cell-based; details: Homo sapiens
# A-375 [8] = test: MITF: Counter assay: A375 proliferation Measured in Cell-Based System Using Plate Reader - 2084-03_Inhibitor_Dose_DryPowder_Activity. [Related pubchem assays (depositor defined):AID488944]; format: functional; details: Homo sapiens
# [9] = target: T2, Microphthalmia-associated transcription factor (Homo sapiens, UniProt O75030); test: TRPM1 promoter luciferase signal decrease, dose response, MITF inhibitor project, cell-based, SK-MEL-5, cherry-picked, set 3 (AID 493073); format: functional
# T2 sequence (O75030 whole entry): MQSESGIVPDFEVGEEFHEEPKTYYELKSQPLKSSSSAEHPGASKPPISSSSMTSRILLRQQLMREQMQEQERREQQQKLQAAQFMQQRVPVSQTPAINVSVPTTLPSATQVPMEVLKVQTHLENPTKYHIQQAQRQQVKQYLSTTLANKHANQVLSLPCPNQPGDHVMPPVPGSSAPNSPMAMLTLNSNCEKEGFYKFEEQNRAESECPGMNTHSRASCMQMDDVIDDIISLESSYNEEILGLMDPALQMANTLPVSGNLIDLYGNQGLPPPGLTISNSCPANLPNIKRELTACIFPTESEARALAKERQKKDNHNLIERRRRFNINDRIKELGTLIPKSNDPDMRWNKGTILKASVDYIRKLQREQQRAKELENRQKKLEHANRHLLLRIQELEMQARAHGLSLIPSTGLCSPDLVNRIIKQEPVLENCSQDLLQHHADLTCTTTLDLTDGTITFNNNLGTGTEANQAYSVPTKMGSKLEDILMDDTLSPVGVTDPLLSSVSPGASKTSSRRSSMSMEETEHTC
# HEK293 [10] = test: cells; details: Homo sapiens
# HEK293 [11] = test: cells; details: Homo sapiens; remark: listed apart in the source
# [12] = target: T3, Alkaline phosphatase, tissue-nonspecific isozyme (Homo sapiens, UniProt P05186); test: TNAP enzyme inhibition by screening hits, dose response, selectivity assay for mouse IAP inhibitor project, biochemical, human TNAP, uHTS hits (AID 488906); format: functional
# T3 sequence (P05186 whole entry): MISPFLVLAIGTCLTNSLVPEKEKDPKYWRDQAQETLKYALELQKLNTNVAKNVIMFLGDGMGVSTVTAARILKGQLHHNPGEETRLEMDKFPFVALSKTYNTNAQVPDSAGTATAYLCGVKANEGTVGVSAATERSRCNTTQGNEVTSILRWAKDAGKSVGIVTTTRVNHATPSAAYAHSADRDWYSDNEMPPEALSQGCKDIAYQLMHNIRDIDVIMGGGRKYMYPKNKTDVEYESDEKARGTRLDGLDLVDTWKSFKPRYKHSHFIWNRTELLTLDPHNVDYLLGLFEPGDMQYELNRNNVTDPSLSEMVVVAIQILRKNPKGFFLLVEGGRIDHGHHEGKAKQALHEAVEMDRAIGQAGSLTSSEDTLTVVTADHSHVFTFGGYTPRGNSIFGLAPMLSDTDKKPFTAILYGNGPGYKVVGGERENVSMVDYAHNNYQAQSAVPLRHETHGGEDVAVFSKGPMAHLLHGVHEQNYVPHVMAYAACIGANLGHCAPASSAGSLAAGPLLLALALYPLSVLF
# [13] = THP-1 cell cytotoxicity, dose response, cytotoxicity control for non-replicating M. tuberculosis project (AID 489025); format: functional
# [14] = target: Intestinal-type alkaline phosphatase (Homo sapiens, UniProt P09923); test: inhibition of human intestinal alkaline phosphatase – biochemical, dose response (AID 488876); format: functional
# Chain of Intestinal-type alkaline phosphatase (Homo sapiens, UniProt P09923) (P09923 whole entry): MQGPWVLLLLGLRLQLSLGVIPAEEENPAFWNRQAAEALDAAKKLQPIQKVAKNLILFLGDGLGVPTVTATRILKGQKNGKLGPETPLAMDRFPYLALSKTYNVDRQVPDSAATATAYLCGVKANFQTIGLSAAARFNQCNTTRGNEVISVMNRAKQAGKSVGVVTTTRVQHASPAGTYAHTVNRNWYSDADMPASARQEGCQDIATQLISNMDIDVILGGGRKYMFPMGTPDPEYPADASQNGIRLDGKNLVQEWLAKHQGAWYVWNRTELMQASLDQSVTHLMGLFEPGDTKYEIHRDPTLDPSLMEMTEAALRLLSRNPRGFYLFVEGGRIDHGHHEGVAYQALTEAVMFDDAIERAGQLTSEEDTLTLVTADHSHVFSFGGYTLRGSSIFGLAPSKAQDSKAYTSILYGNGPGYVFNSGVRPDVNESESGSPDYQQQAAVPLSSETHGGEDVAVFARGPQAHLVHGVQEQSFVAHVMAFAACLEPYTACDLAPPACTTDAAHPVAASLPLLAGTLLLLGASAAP
# [15] = Vero E6 cell cytotoxicity, dose response, cytotoxicity control for non-replicating M. tuberculosis project, secondary assay (AID 492998); format: functional, VeroE6; details: Vero C1008
# [16] = target: Heat shock protein HSP 90-alpha (Homo sapiens, UniProt P07900); format: functional, organism-based
# [17] = microbe, parasite or virus in culture; format: functional; details: Mycobacterium tuberculosis
# cells = format: functional
# [18] = target: Intestinal-type alkaline phosphatase (Mus musculus, UniProt P24822); test: PubChem AID 488785; format: functional
# Chain of Intestinal-type alkaline phosphatase (Mus musculus, UniProt P24822) (P24822 whole entry): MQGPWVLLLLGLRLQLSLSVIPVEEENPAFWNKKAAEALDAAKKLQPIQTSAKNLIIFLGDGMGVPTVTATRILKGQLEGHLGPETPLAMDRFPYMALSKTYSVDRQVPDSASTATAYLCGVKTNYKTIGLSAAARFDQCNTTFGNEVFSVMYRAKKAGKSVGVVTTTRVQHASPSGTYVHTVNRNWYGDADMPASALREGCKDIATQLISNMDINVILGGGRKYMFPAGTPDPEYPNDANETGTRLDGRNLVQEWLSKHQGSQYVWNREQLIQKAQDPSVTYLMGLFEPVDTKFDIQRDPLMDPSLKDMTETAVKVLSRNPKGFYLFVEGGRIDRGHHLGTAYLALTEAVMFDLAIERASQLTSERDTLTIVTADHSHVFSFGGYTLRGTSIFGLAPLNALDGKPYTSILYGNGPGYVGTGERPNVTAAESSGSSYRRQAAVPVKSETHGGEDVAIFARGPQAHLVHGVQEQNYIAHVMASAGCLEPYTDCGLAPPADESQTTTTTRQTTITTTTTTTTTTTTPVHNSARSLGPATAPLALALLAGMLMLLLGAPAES
Structure (SMILES),EC50 [2],EC50 [3],EC50 [4],AC50 (A-375 [7]),AC50 (A-375 [8]),AC50 [9],EC50 (HEK293 [10]),EC50 (HEK293 [11]),further results
COc1ccc(CNc2ncc(-c3ccc(F)cc3)n2C)c2ccccc12,6.58 µM (active),10 µM (active),1.22 µM (active),,,,,,IC50 [1]: > 80 µM (inactive); IC50 (Jurkat): 1.97 µM (active); CC50 [5]: 100 µM (active); IC50 [6]: 62.6 µM (active)
CC1CCN(Cc2nc(-c3ccc(Cl)cc3)no2)CC1,,,,> 35 µM (active),> 35 µM (active),7.62 µM (active),,,
Cc1ccc(-c2nc(C#N)c(NCc3ccco3)o2)cc1,,,,> 35 µM (active),> 35 µM (active),,,,
CCCCn1c(SCc2ccc(Cl)cc2)nc2c1c(=O)[nH]c(=O)n2C,16.2 µM (active),15.8 µM (active),17 µM (active),,,,> 59.6 µM (inactive),> 59.6 µM (inactive),
CCOC(=O)[C@@H](C)N(Cc1ccc(OC)cc1)S(=O)(=O)N(Cc1ccccc1)[C@H](C(=O)OC)C(C)C,,,,,,,> 59.7 µM (inactive),> 59.7 µM (inactive),
O=C(N/N=C/c1ccc([N+](=O)[O-])o1)c1sc2ccccc2c1Cl,,,,> 11 µM (active),> 11 µM (active),4.61 µM (active),,,IC50 [12]: > 100 µM (inactive); CC50 [13]: 19.1 µM (active); IC50 [14]: > 100 µM (inactive); CC50 [15]: > 20 µM (active); AC50 [16]: 4.4 µM (active); CC50 [17]: 20.2 µM (active); IC50 (cells): 2.18 µM (active); IC50 [18]: 7.89 µM (active)
